From patent publication US20150344457A1, “METHODS OF INHIBITING PRMT5” (EPIZYME, INC., priority 2012, published 2015)

Key:
[1] = tested on: Z-138 cells; assay: Z-138 Proliferation Assay (Cell Titer Glo, 5 days); assay type: cell-based; conditions: Homo sapiens, 120 h, Table A-2, 5 days, top concentration 20 μM
Procedure, shortened: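 Exponentially growing Z-138 cells (10,000 cells/ml) in RPMI 1640 with 10% FBS are exposed to nine-point 3-fold dilutions (final top concentration 20 μM, 0.2% DMSO) for 5 days at 37° C. Viability is measured as ATP by CellTiter-Glo luminescence. The 50% inhibitory concentration comes from a 4-parameter fit.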

[2] = molecular target: T1, PRMT5/MEP50 (Homo sapiens, UniProt O14744); assay: PRMT5 Biochemical Assay (PRMT5/MEP50 enzyme assay on peptide substrate, 3H-SAM Flashplate); conditions: Table A-2; PRMT5/MEP50 4 nM, 3H-SAM 75 nM, peptide 40 nM; read-out: Biochemical IC50
T1 construct: Expressed full-length human Flag-PRMT5/6His-MeP50 protein complex was purified; made in house; host or cells: Spodoptera frugiperda (SF9) insect cells, baculovirus (pDEST8)
T1 sequence (O14744 with tags, fused parts or gaps): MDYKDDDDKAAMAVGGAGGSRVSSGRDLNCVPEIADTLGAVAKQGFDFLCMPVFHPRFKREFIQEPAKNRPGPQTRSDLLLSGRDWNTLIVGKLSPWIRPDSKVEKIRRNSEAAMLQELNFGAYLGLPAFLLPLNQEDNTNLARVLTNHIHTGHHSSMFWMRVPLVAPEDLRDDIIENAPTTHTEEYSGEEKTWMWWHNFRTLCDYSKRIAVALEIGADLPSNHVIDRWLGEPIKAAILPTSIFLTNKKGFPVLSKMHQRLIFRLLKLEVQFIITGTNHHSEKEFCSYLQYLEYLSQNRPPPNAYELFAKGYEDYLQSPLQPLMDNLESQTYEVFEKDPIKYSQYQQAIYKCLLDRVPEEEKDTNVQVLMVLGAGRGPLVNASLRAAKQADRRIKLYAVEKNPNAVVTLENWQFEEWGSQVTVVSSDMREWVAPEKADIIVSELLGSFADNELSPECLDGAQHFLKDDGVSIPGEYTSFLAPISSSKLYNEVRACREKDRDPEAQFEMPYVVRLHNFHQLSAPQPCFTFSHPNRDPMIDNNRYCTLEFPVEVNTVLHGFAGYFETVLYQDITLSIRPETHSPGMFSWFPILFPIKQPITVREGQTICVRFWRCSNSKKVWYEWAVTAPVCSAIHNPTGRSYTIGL
T1 sequence (Q9BQA1 with tags, fused parts or gaps partner limits assumed): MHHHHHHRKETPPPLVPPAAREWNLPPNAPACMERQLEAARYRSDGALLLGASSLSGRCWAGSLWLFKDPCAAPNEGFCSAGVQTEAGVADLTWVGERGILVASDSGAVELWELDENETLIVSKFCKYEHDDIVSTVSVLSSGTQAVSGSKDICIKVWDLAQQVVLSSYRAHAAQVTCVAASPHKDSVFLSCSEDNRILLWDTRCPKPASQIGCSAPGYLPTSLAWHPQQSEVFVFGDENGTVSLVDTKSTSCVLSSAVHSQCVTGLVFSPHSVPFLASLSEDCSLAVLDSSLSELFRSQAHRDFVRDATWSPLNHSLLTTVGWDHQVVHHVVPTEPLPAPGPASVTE

| Structure (SMILES) | EC50 [1] [µM] | IC50 [2] [µM] |
| --- | --- | --- |
| O=C(COc1ccccc1S(=O)(=O)N1CCCC1)NCC(O)CN1CCc2ccccc2C1 (centres unmarked) [Compound A110] | 0.101 to 1 | < 0.1 |
| O=C(COc1ccccc1S(=O)(=O)N1CCC(O)C1)NCC(O)CN1CCc2ccccc2C1 (centres unmarked) [Compound A111] | 0.101 to 1 | < 0.1 |
| CNC(=O)c1ccccc1OCC(=O)NCC(O)CN1CCc2ccccc2C1 (centres unmarked) [Compound A112] | > 20 | 0.101 to 1 |
| CN(C)C(=O)c1ccccc1OCC(=O)NCC(O)CN1CCc2ccccc2C1 (centres unmarked) [Compound A113] | 10 to 50 | 0.101 to 1 |
| CC(Oc1ccccc1S(C)(=O)=O)C(=O)NCC(O)CN1CCc2ccccc2C1 (centres unmarked) [Compound A114] | > 20 | 0.101 to 1 |
| O=C(COc1ccccc1C1CCNC1)NCC(O)CN1CCc2ccccc2C1 (centres unmarked) [Compound A116] | > 20 | 1 to 10 |
| O=C(COc1ccccc1C1CCCNC1)NCC(O)CN1CCc2ccccc2C1 (centres unmarked) [Compound A117] | 1 to 10 | 0.101 to 1 |
| Cn1cc2c(OCC(=O)NCC(O)CN3CCc4ccccc4C3)cccc2n1 (centres unmarked) [Compound A118] | > 20 | 0.101 to 1 |
| O=C(COc1cccc2c1CNCC2)NCC(O)CN1CCc2ccccc2C1 (centres unmarked) [Compound A119] | 10 to 50 | < 0.1 |
| CN1CCc2cccc(OCC(=O)NCC(O)CN3CCc4ccccc4C3)c2C1 (centres unmarked) [Compound A120] | > 20 | 0.101 to 1 |
| CC(=O)N1CCN(S(=O)(=O)c2ccccc2OCC(=O)NCC(O)CN2CCc3ccccc3C2)CC1 (centres unmarked) [Compound A122] | > 20 | 0.101 to 1 |
| CNS(=O)(=O)c1ccccc1OCC(=O)NCC(O)CN1CCc2ccccc2C1 (centres unmarked) [Compound A123] | 1 to 10 | < 0.1 |
| O=C(COc1cccc2c1OCC(=O)N2)NCC(O)CN1CCc2ccccc2C1 (centres unmarked) [Compound A124] | > 20 | 1 to 10 |
| CN(C)c1ncccc1OCC(=O)NCC(O)CN1CCc2ccccc2C1 (centres unmarked) [Compound A127] | > 20 | 0.101 to 1 |
| O=C(COc1cccc2ncc(=O)[nH]c12)NCC(O)CN1CCc2ccccc2C1 (centres unmarked) [Compound A129] | > 20 | 0.101 to 1 |
| CN1CCCC(c2ccccc2OCC(=O)NCC(O)CN2CCc3ccccc3C2)C1 (centres unmarked) [Compound A130] | 1 to 10 | < 0.1 |
| CN1CCC(c2ccccc2OCC(=O)NCC(O)CN2CCc3ccccc3C2)CC1 (centres unmarked) [Compound A134] | > 20 | 0.101 to 1 |
| O=C(COc1ccccc1-c1ncc[nH]1)NCC(O)CN1CCc2ccccc2C1 (centres unmarked) [Compound A137] | > 20 | 0.101 to 1 |
| CN(c1cccc(OCC(=O)NCC(O)CN2CCc3ccccc3C2)c1)S(C)(=O)=O (centres unmarked) [Compound A142] | > 20 | 0.101 to 1 |
